This is an account of results in patent US20220072014A1, “PHARMACEUTICAL COMPOSITION WHICH COMPRISES THE COMBINATION OF A SELECTIVE INHIBITOR OF CYCLOOXYGENASE 2 AND A CARBAMATE DERIVED FROM GUAIFENESIN FOR TREATING PAIN, INFLAMMATION AND MUSCULAR CONTRACTION” (priority 2018, published 2022).

The term ED50 denotes the midpoint of the dose-response relation.

The test system of data set [1] is arthrosis and rheumatoid arthritis (RA) patients. The following applies: patients without concomitant ASA; cited from earlier work.
Data set [2] concerns gout arthritis induced by intra-articular uric acid. Put plainly: pain-induced functional impairment in the rat model (PIFIR model), uric acid-induced gout arthritis. The class given is in vivo, male Wistar rats. As to the method: All experiments were performed during the light phase of the light/darkness cycles.
Data set [3] can be described thus: weight gain of experimental animals. It is filed as in vivo, rats. As to conditions: celecoxib doses used for the chronic treatment DRC, alone or combined.
The test system of data set [4] is rats (lethality). Nature of the data set: preclinical toxicity (lethality) study after oral administration. The class given is in vivo, male Wistar rats. An excerpt: In order to determine the possible antinociceptive and toxic effects of the combination, male Wistar rats [Crl:(WI)fBR] with a weight of 180-200 g were used. All experimental procedures complied with the recommendations of the Committee for Research and Ethical Issues of the International Association for the Study of Pain (Covino et al., 1980) and the Guidelines on Ethical Standards for Investigations of Experimental Pain in Animals (Zimmermann 1983). The number of experimental animals was kept to a minimum (6 animals per experimental point for antinociceptive effects and 10 animals per experimental point for adverse effects:lethality). The rats were kept in a room with alternating light/darkness cycles. For twelve hours before the antinociception experiments rats fasted but had free access to water. All experiments were performed during the light phase of the light/darkness cycles.
The lethal toxic effects after single administrations were determined in 3 post-treatment timepoints, 24, 48 and 72 hours, in order to determine the corresponding DRC (death).

For data set [5] the following is noted: FDA prescribing information; cited from earlier work.
The conditions of data set [6]: oral route, cited from earlier work.

Take `Cc1ccc(-c2cc(C(F)(F)F)nn2-c2ccc(S(N)(=O)=O)cc2)cc1` [celecoxib, 4-[5-(4-methylphenyl)-3-(trifluoromethyl)-1H-pyrazol-1-yl]benzenesulfonamide]: the GI bleeding incidence entry in data set [1] is “lower GI bleeding incidence”. In addition, in data set [2] (2.5 h after oral administration, celecoxib 1,000 mg/Kg alone or with methocarbamol 50 mg/Kg), the “maximal effect (% FI)” value was 63.6±9.9%. Further, in data set [2] (4 h after oral administration, celecoxib 1,000 mg/Kg alone or with methocarbamol 50 mg/Kg), the “effect four hours after being administered (% FI)” value is 62.5±7.0%. For the same molecule, the median effective dose (ED50) in data set [2] (Rattus norvegicus, po, read-out: ED50 (antinociceptive dose-response curve)) stood at 51.1 mg/kg. In addition, the “peak antinociceptive effectiveness (AUC of temporal course, global antinociceptive effect)” value in data set [2] (oral, acute administration, 4-hour assessment, most efficacious dose celecoxib 1,000 mg/Kg (combination with methocarbamol 50 mg/Kg)) was 191.9±27.2 area units (au). The “effect on normal weight gain” value in data set [3] is given as “does not modify the normal weight gain”. Also, the “dose at which the lethality DRC begins” value in data set [4] (24 hours) amounted to 17800 mg/kg. Moreover, the estimated effective half-life in data set [5] was 8 to 12 h.

In the case of `COc1ccccc1OCC(O)COC(N)=O` (stereo not drawn) [methocarbamol, 3-(2-methoxyphenoxy)-1,2-propanediol 1-carbamate], the “time to peak action” value in data set [6] (humans) was no more than 2 h. Moreover, the “time to reach active levels” value in data set [6] is no more than 30 min. In addition, the “antinociceptive effect during the assessment period” value in data set [2] (methocarbamol 50 mg/Kg alone, oral, 4-hour assessment) is on record as “did not produce any antinociceptive effect whatsoever”. In data set [4], the “dose causing lethality effects within 24 hours” value is on record as 1,000 mg/Kg.
